{"source": "patent US8445505B2", "about": "(IRM LLC, priority 2008, dated 2013)", "data": [{"target": "IGF1R Ba/F3 (Homo sapiens, UniProt P08069)", "sequence (P08069 999-1274 limits assumed)": "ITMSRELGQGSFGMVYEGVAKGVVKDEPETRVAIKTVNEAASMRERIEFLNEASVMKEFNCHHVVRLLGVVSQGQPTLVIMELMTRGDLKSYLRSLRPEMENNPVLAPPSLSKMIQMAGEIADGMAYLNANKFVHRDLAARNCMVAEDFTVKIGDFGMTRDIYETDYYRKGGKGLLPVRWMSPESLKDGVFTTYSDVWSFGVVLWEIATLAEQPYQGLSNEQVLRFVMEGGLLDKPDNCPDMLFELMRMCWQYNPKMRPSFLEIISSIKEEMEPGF", "assay": "Ba/F3 Cell Viability Inhibition Assay (Tel-TK transformed Ba/F3 lines)", "format": "cell-based, murine", "parameters": "the printed alternative", "conditions": "Tel-TK (IGF1R) transformed Ba/F3 cells, 48 hours incubation, cell viability (Britelite luminescence)", "text": "Ba/F3 is a murine IL-3-dependent pro-B lymphoma cell line. Parental Ba/F3 cells are used to generate a panel of sublines whose proliferation and survival is rendered IL-3-independent by stable transduction with individual tyrosine kinases activated by fusion with the amino-terminal portion of TEL (amino acid 1-375) or BCR. In order to generate Ba/F3 cell lines transformed by Tel-Tyrosine Kinase (TK) fusions, parental Ba/F3 cells are infected with a retrovirus harboring each TEL-fusion kinase and subjected to puromycin selection and IL-3 withdrawal to obtain IL-3-independent, transformed Ba/F3 cells.\nEach transformed Ba/F3 cells are cultured in RPMI-1640 media (Gibco Cat #11875093, Carlsbad, Calif.) supplemented with 10% FBS (Hyclone Cat #SV30014.03, Logan, Utah), 4.5 g/L glucose (Sigma #G5400, St.Louis, Mo.), 1.5 g/L sodium bicarbonate (Biowhittaker #17-613E, Walkersville, Md.) and Pen/Strep (Gibco #10378-016, Carlsbad, Calif.). Cells are splitted twice weekly.\nThe potency of test compounds against various Tel-TK transformed Ba/F3 lines is determined as follows. Exponentially growing BaF3 Tel-TK cells are diluted in fresh medium to 75,000 cells/mL and seeded into 384-well plates (3750 cells/well) at 50 μL/well using a gill liquid dispenser (BioTek, Winooski, Vt., USA). Duplicate plates are run for each cell line. Test and control compounds are serially diluted with DMSO and arrayed in a polypropylene 384-well plate. 50 nL of compound is transferred into the assay plates using a pin-transfer device, and the plates are incubated at 37° C. (5% CO2) for 48 hours. 25 μL Britelite (Perkin Elmer) is added and luminescence is quantified using Analyst GT (Molecular Devices). Custom curve-fitting software is used to produce a logistic fit of percent cell viability as a function of the logarithm of inhibitor concentration. The IC50 is interpolated as the concentration of compound needed to reduce cell viability to 50% of a DMSO control. Parental Ba/F3 cells that are maintained and cultured in presence of IL-3 (1 ng/ml in final) are diluted in fresh medium containing IL-3 (1 ng/ml in final) to 75,000 cells/mL following the same procedure as described above.", "units": {"IC50": "nM"}, "values": [{"compound": "CCN(CC)[C@H]1CC[C@H](c2cc(F)c(Nc3ncc(Cl)c(Nc4cc(C)[nH]n4)n3)cc2C)CC1", "note": "[Compound 57, 5-chloro-N2-(4-((trans)-4-(diethylamino)cyclohexyl)-2-fluoro-5-methylphenyl)-N4-(5-methyl-1H-pyrazol-3-yl)pyrimidine-2,4-diamine]", "IC50": 31}, {"compound": "Cc1cc(Nc2nc(Nc3cc(C)c(-c4ccoc4)cc3F)ncc2Cl)n[nH]1", "note": "[Compound 11, 5-chloro-N2-(2-fluoro-4-(furan-3-yl)-5-methylphenyl)-N4-(5-methyl-1H-pyrazol-3-yl)pyrimidine-2,4-diamine]", "IC50": 683}, {"compound": "Cc1cc(Nc2nc(Nc3cc(C)c([C@H]4CC[C@H](O)CC4)cc3C)ncc2Cl)n[nH]1", "note": "[Compound 45, trans-4-(4-(5-chloro-4-(5-rnethyl-1H-pyrazol-3-ylamino)pyrimidin-2-ylamino)-2,5-dimethylphenyl)cyclohexanol]", "IC50": 14}, {"compound": "COc1cc(-c2cnco2)c(C)cc1Nc1ncc(Cl)c(Nc2cc(C)[nH]n2)n1", "note": "[Compound 21, 5-chloro-N2-(2-methoxy-5-methyl-4-(oxazol-5-yl)phenyl)-N4-(5-methyl-1H-pyrazol-3-yl)pyrimidine-2,4-diamine]", "IC50": 169}, {"compound": "Cc1cc(Nc2nc(Nc3ccc(C4CCN(CCS(C)(=O)=O)CC4)c4cccnc34)ncc2Cl)n[nH]1", "note": "[Compound 78, 5-chloro-N4-(5-methyl-1H-pyrazol-3-yl)-N2-(5-(1-(2-(methylsulfonyl)ethyl)piperidin-4-yl)quinolin-8-yl)pyrimidine-2,4-diamine]", "IC50": 412}, {"compound": "Cc1cc(Nc2nc(Nc3cc(C)c([C@H]4CC[C@@H](O)CC4)cc3C)ncc2C(F)(F)F)n[nH]1", "note": "[Compound 42, cis-4-(2,5-dimethyl-4-(4-(5-methyl-1H-pyrazol-3-ylamino)-5-(trifluoromethyl)pyrimidin-2-ylamino)phenyl)cyclohexanol]", "IC50": 53}, {"compound": "Cc1cc(Nc2nc(Nc3cc(C)c(-c4nccn4C)cc3C)ncc2Cl)n[nH]1", "note": "[Compound 25, 5-chloro-N2-(2,5-dimethyl-4-(1-methyl-1H-imidazol-2-yl)phenyl)-N4-(5-methyl-1H-pyrazol-3-yl)pyrimidine-2,4-diamine]", "IC50": 71}, {"compound": "Cc1ccc(-c2cc(C)c(Nc3ncc(Cl)c(Nc4cc(C)[nH]n4)n3)cc2C)cn1", "note": "[Compound 16, 5-chloro-N2-(2,5-dimethyl-4-(6-methylpyridin-3-yl)phenyl)-N4-(5-methyl-1H-pyrazol-3-yl)pyrimidine-2,4-diamine]", "IC50": 30}, {"compound": "Cc1cc(Nc2nc(Nc3cc(C)c([C@H]4CC[C@H](O)CC4)cc3C)ncc2C(F)(F)F)n[nH]1", "note": "[Compound 41, trans-4-(2,5-dimethyl-4-(4-(5-methyl-1H-pyrazol-3-ylamino)-5-(trifluoromethyl)pyrimidin-2-ylamino)phenyl)cyclohexanol]", "IC50": 25}, {"compound": "Cc1cc(Nc2nc(Nc3cc(C)c(-c4ccsc4)cc3F)ncc2Cl)n[nH]1", "note": "[Compound 10, 5-chloro-N2-(2-fluoro-5-methyl-4-(thiophen-3-yl)phenyl)-N4-(5-methyl-1H-pyrazol-3-yl)pyrimidine-2,4-diamine]", "IC50": 833}, {"compound": "Cc1cc2c(Nc3ncc(Cl)c(Nc4cc(C)[nH]n4)n3)cccc2nn1", "note": "[Compound 83, 5-chloro-N4-(5-methyl-1H-pyrazol-3-yl)-N2-(3-methylcinnolin-5-yl)pyrimidine-2,4-diamine]", "IC50": 1450}, {"compound": "Cc1cc(Nc2nc(Nc3ccc(C4CCN(CC(O)C(F)(F)F)CC4)c4ccccc34)ncc2Cl)n[nH]1", "note": "(stereo not shown) [Compound 88, 3-(4-(4-(5-chloro-4-(5-methyl-1H-pyrazol-3-ylamino)pyrimidin-2-ylamino)naphthalen-1-yl)piperidin-1-yl)-1,1,1-trifluoropropan-2-ol]", "IC50": 346}, {"compound": "Cc1cc(Nc2nc(Nc3cc(C)c([C@H]4CC[C@@H](N5CCCCC5)CC4)cc3F)ncc2Cl)n[nH]1", "note": "[Compound 48, Cis-5-chloro-N2-(2-fluoro-5-methyl-4-(4-(piperidin-1-yl)cyclohexyl)phenyl)-N4-(5-methyl-1H-pyrazol-3-yl)pyrimidine-2,4-diamine]", "IC50": 21}]}]}
